Results published in ChEMBL document CHEMBL1157230, “Bacterial biofilm inhibitors from Diospyros dendo” (2006).

System: Pseudomonas aeruginosa
Test: Antibacterial activity against Pseudomonas aeruginosa PAO1 assessed as inhibition of biofilm formation at 10 ug/ml after 24 hrs
Assay type: functional
Settings: PAO1, 24 h

SMILES | inhibition at 10 µg/mL [%]
C[C@H]1[C@H](C)CC[C@]2(C(=O)O)CC[C@]3(C)C(=CC[C@@H]4[C@@]5(C)C[C@@H](O)[C@H](OC(=O)/C=C\c6ccc(O)cc6)C(C)(C)[C@@H]5CC[C@]43C)[C@H]12 | 32
COc1cc(/C=C/C(=O)O[C@H]2[C@H](O)C[C@]3(C)[C@H]4CC=C5[C@@H]6[C@@H](C)[C@H](C)CC[C@]6(C(=O)O)CC[C@@]5(C)[C@]4(C)CC[C@H]3C2(C)C)ccc1O | 48
C[C@@H]1[C@H]2C3=CC[C@@H]4[C@@]5(C)CC[C@H](OC(=O)/C=C\c6ccc(O)cc6)C(C)(C)[C@@H]5CC[C@@]4(C)[C@]3(C)CC[C@@]2(C(=O)O)CC[C@]1(C)O | 62
C[C@H]1[C@H](C)CC[C@]2(C(=O)O)CC[C@]3(C)C(=CC[C@@H]4[C@@]5(C)C[C@@H](O)[C@H](OC(=O)/C=C/c6ccc(O)cc6)C(C)(C)[C@@H]5CC[C@]43C)[C@H]12 | 35
C[C@H]1[C@H](C)CC[C@]2(C(=O)O)CC[C@]3(C)C(=CC[C@@H]4[C@@]5(C)CC[C@H](O)C(C)(C)[C@@H]5CC[C@]43C)[C@H]12 [URSOLIC ACID] | 35
